Laboratory results as given in patent publication US9074014B2 (Ipsen Pharma S.A.S., priority 2008, dated 2015).
Where a SMILES comes first, the peptide text is derived from it. Where no end group is shown, it is not given here. [ ]: non-standard residue; d: D form. The star is where a group is joined. Myristoyl = CCCCCCCCCCCCCC(=O)*; Ac6c = NC1(C(=O)O)CCCCC1; Nle = CCCC[C@H](N)C(=O)O; Orn = NCCC[C@H](N)C(=O)O; X1 = CCCN1C(=O)CC(*)C1=O; Ac5c = NC1(C(=O)O)CCCC1; Aib = CC(C)(N)C(=O)O

How the values were obtained:
[1] = molecular target: T1, human recombinant GIP receptor (Homo sapiens, UniProt P48546); test: In vitro hGIP receptor binding assay ([125I]GIP displacement, CHO-K1 membranes)
T1 construct: expressed in transfected cells; host or cells: CHO-K1 clonal cells (membranes)
T1 sequence (P48546 22-466): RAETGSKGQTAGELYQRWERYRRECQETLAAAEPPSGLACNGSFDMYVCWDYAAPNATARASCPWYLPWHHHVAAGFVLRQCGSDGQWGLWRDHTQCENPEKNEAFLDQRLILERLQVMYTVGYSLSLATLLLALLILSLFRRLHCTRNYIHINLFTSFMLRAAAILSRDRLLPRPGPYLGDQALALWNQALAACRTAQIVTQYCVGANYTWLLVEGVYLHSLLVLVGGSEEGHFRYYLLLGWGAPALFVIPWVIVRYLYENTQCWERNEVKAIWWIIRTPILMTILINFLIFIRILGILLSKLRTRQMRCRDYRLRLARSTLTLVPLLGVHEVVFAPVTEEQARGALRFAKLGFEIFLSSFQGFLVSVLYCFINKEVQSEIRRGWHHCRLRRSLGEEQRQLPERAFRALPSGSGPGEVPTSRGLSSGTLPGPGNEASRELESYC
Source text: A. In Vitro hGIP Receptor Binding Assay

[2] = Human plasma half-life assay; assay type: in vitro ADME; details: human plasma, 37° C., LC-MS; read-out: Human Plasma T½ (converted)
[3] = Rat plasma half-life assay; assay type: in vitro ADME; details: rat plasma, 37° C., LC-MS; for half-life at 0.1 mg/ml: read-out: Rat Plasma T½ (converted)

CC[C@H](C)[C@H](NC(=O)[C@H](CCCCN)NC(=O)[C@H](CC(=O)O)NC(=O)[C@H](CCSC)NC(=O)[C@H](C)NC(=O)[C@@H](NC(=O)C1(NC(=O)[C@H](Cc2ccc(O)cc2)NC(=O)[C@H](CC(=O)O)NC(=O)[C@H](CO)NC(=O)[C@@H](NC(=O)[C@H](Cc2ccccc2)NC(=O)[C@@H](NC(=O)CNC(=O)[C@@H]2CCCN2C(=O)[C@H](C)NC(=O)[C@@H](N)Cc2ccc(O)cc2)[C@@H](C)O)[C@@H](C)CC)CCCC1)[C@@H](C)CC)C(=O)N[C@@H](Cc1c[nH]cn1)C(=O)N[C@@H](CCC(N)=O)C(=O)N[C@@H](CCC(N)=O)C(=O)N[C@@H](CC(=O)O)C(=O)N[C@@H](Cc1ccccc1)C(=O)N[C@H](C(=O)N[C@@H](CC(N)=O)C(=O)N[C@@H](Cc1c[nH]c2ccccc12)C(=O)N[C@@H](CC(C)C)C(=O)N[C@@H](CC(C)C)C(=O)N[C@@H](C)C(=O)N[C@@H](CCC(N)=O)C(=O)N[C@@H](CCCCN)C(N)=O)C(C)C [Example 98, (Pro^3, A5c^11)hGIP(1-30)-NH2] (H-YAPGTFISDY[Ac5c]IAMDKIHQQDFVNWLLAQK-NH2; N-terminus assumed)
Ki [1]: 65.9 nM

Y[Aib]EGTFISDYS[Ac5c]AMDKIHQQDFVNWLLAQKGKKNDWKHNITQ-OH [Example 7, (Aib^2, A5c^12)hGIP(1-42)-OH]
half-life at 0.1 mg/ml [2]: 37.1 h
half-life at 0.1 mg/ml [3]: 5.3 h

Y[Aib]EGTFISDYS[Aib]AMDKIHQQDFVNWLLAQKGKKNDWKHNITQ-OH [Example 8, (Aib^2, 12)hGIP(1-42)-OH]
half-life at 0.1 mg/ml [2]: > 48 h
half-life at 0.1 mg/ml [3]: 4.5 h

Y[Aib]EGTFISDY[Ac5c]IAMDKIHQQDFVNWLLAQKGKKNDWKHNITQ-OH [Example 53, (Aib^2, A5c^11)hGIP(1-42)-OH]
half-life at 0.1 mg/ml [2]: 33.3 h
half-life at 0.1 mg/ml [3]: 51.7 h

Y[Aib]EGTFISDY[Ac5c]IA[Ac6c]DKIHQQDFVNWLLAQKGKKNDWKHNITQ-OH [Example 61, (Aib^2, A5c^11, A6c^14)hGIP(1-42)-OH]
half-life at 0.1 mg/ml [2]: > 48 h
half-life at 0.1 mg/ml [3]: 45.3 h

Y[Aib]EGTFISDY[Ac5c]IA[Nle]DKIHQQDFVNWLLAQKGKKNDWKHNITQ-OH [Example 54, (Aib^2, A5c^11, Nle^14)hGIP(1-42)-OH]
half-life at 0.1 mg/ml [2]: > 56 h
half-life at 0.1 mg/ml [3]: 44.1 h

Y[Aib]EGTFISDY[Aib]IAMDKIHQQDFVNWLLAQKGKKNDWKHNITQ-OH [Example 1, (Aib^2, 11)hGIP(1-42)-OH]
half-life at 0.1 mg/ml [2]: > 48 h
half-life at 0.1 mg/ml [3]: 3.9 h

Y[Aib]EGTFISDY[Aib]IA[Nle]DKIHQQDFVNWLLAQKGKKNDWKHNITQ-OH [Example 45, (Aib^2, 11, Nle^14)hGIP(1-42)-OH]
half-life at 0.1 mg/ml [2]: 18.2 h
half-life at 0.1 mg/ml [3]: 11.6 h

Y[Aib]EGTFIS[Aib]YSIAMDKIHQQDFVNWLLAQKGKKNDWKHNITQ-OH [Example 2, (Aib^2, 9)hGIP(1-42)-OH]
half-life at 0.1 mg/ml [2]: 9.4 h
half-life at 0.1 mg/ml [3]: 5.6 h

Y[Aib]EGTFI[Aib]DYSIAMDKIHQQDFVNWLLAQKGKKNDWKHNITQ-OH [Example 9, (Aib^2, 8)hGIP(1-42)-OH]
half-life at 0.1 mg/ml [2]: > 48 h
half-life at 0.1 mg/ml [3]: 9.2 h

Y[Aib]EGTF[Ac5c]SDYSIAMDKIHQQDFVNWLLAQKGKKNDWKHNITQ-OH [Example 6, (Aib^2, A5c^7)hGIP(1-42)-OH]
half-life at 0.1 mg/ml [2]: > 48 h
half-life at 0.1 mg/ml [3]: 8.6 h

Y[Aib]EGTF[Ac5c]SDYSIA[Ac5c]DKIHQQDFVNWLLAQKGKKNDWKHNITQ-OH [Example 59, (Aib^2, A5c^7, 14)hGIP(1-42)-OH]
half-life at 0.1 mg/ml [2]: 24 h
half-life at 0.1 mg/ml [3]: 13.1 h

Y[Aib]EGTF[Ac5c]SDYSIA[Ac6c]DKIHQQDFVNWLLAQKGKKNDWKHNITQ-OH [Example 44, (Aib^2, A5c^7, A6c^14)hGIP(1-42)-OH]
half-life at 0.1 mg/ml [2]: 9.5 h
half-life at 0.1 mg/ml [3]: 7.5 h

Y[Aib]EGTF[Ac5c]SDYSIA[Nle]DKIHQQDFVNWLLAQKGKKNDWKHNITQ-OH [Example 58, (Aib^2, A5c^7, Nle^14)hGIP(1-42)-OH]
half-life at 0.1 mg/ml [2]: 37.6 h
half-life at 0.1 mg/ml [3]: 16.7 h

Y[Aib]EGTF[Ac6c]SDYSIAMDKIHQQDFVNWLLAQKC(X1)KKNDWKHNITQ-OH [Example 90, [Aib^2, A6c^7, Cys(Psu)^31]hGIP(1-42)-OH]
half-life at 0.1 mg/ml [2]: 11.3 h
half-life at 0.1 mg/ml [3]: 4.8 h

Y[Aib]EGTF[Ac6c]SDYSIAMDKIHQQDFVNWLLAQKGKKC(X1)DWKHNITQ-OH [Example 86, [Aib^2, A6c^7, Cys(Psu)^34]hGIP(1-42)-OH]
half-life at 0.1 mg/ml [2]: 4.2 h
half-life at 0.1 mg/ml [3]: 7 h

Y[Aib]EGTF[Ac6c]SDYSIAMDKIHQQDFVNWLLAQKGKKNC(X1)WKHNITQ-OH [Example 85, [Aib^2, A6c^7, Cys(Psu)^35]hGIP(1-42)-OH]
half-life at 0.1 mg/ml [2]: 7.3 h
half-life at 0.1 mg/ml [3]: 3.5 h

Y[Aib]EGTF[Ac6c]SDYSIAMDKIHQQDFVNWLLAQKGKKNDC(X1)KHNITQ-OH [Example 81, [Aib^2, A6c^7, Cys(Psu)^36]hGIP(1-42)-OH]
half-life at 0.1 mg/ml [2]: 8.2 h
half-life at 0.1 mg/ml [3]: 6.1 h

Y[Aib]EGTF[Ac6c]SDYSIAMDKIHQQDFVNWLLAQKGKKNDWKC(X1)NITQ-OH [Example 80, [Aib^2, A6c^7, Cys(Psu)^38]hGIP(1-42)-OH]
half-life at 0.1 mg/ml [2]: > 54 h
half-life at 0.1 mg/ml [3]: 5.5 h

Y[Aib]EGTF[Ac6c]SDYSIAMDKIHQQDFVNWLLAQKGKKNDWKHNC(X1)TQ-OH [Example 78, [Aib^2, A6c^7, Cys(Psu)^40]hGIP(1-42)-OH]
half-life at 0.1 mg/ml [2]: 10.1 h
half-life at 0.1 mg/ml [3]: 11.2 h

Y[Aib]EGTF[Ac6c]SDYSIAMDKIHQQDFVNWLLAQK[Aib]KKNDWKHNITQ-OH [Example 22, (Aib^2, 31, A6c^7)hGIP(1-42)-OH]
half-life at 0.1 mg/ml [2]: > 48 h
half-life at 0.1 mg/ml [3]: 14.2 h

Y[Aib]EGTF[Ac6c]SDYSIA[Nle]DKIHQQDFVNWLLAQKGKKNDWKHNITQ-OH [Example 55, (Aib^2, A6c^7, Nle^14)hGIP(1-42)-OH]
half-life at 0.1 mg/ml [2]: 8.8 h
half-life at 0.1 mg/ml [3]: 11.7 h

Y[Aib]EGTF[Ac6c]SDYSIA[Nle]DKIHQQDFVNWLLAQKGKKNDWKHNI[Ac6c]Q-OH [Example 29, (Aib^2, A6c^7, 41, Nle^14)hGIP(1-42)-OH]
half-life at 0.1 mg/ml [2]: > 48 h
half-life at 0.1 mg/ml [3]: 7.3 h

Y[Aib]EGTF[Ac6c]SDYSIA[Nle]DKIHQQDFVNWLLAQKGKKNDWKHNI[Aib]Q-OH [Example 25, (Aib^2, 41, A6c^7, Nle^14)hGIP(1-42)-OH]
half-life at 0.1 mg/ml [2]: > 48 h
half-life at 0.1 mg/ml [3]: 8.4 h

Y[Aib]EGTF[Ac6c]SDYSIA[Nle]DKIHQQDFVNWLLAQKGKKNDWKHN[Ac6c]TQ-OH [Example 28, (Aib^2, A6c^7, 40, Nle^14)hGIP(1-42)-OH]
half-life at 0.1 mg/ml [2]: > 48 h
half-life at 0.1 mg/ml [3]: 11.6 h

Y[Aib]EGTF[Ac6c]SDYSIA[Nle]DKIHQQDFVNWLLAQK[Aib]KKNDWKHNITQ-OH [Example 24, (Aib^2, 31, A6c^7, Nle^14)hGIP(1-42)-OH]
half-life at 0.1 mg/ml [2]: > 48 h
half-life at 0.1 mg/ml [3]: 24.8 h

Y[Aib]EGTF[Ac6c]SDYSIA[Nle]DKIHQQDFVNWLL[Aib]QKGKKNDWKHNITQ-OH [Example 30, (Aib^2, 28, A6c^7, Nle^14)hGIP(1-42)-OH]
half-life at 0.1 mg/ml [2]: > 48 h
half-life at 0.1 mg/ml [3]: 13.4 h

Y[Aib]EGTF[Ac6c]SDYSIA[Nle]DKIHQQDFVNWL[Ac6c]AQKGKKNDWKHNITQ-OH [Example 27, (Aib^2, A6c^7, 27, Nle^14)hGIP(1-42)-OH]
half-life at 0.1 mg/ml [2]: > 48 h
half-life at 0.1 mg/ml [3]: 9.3 h

Y[Aib]EGTF[Ac6c]SDYSIA[Nle]DK[Ac6c]HQQDFVNWLLAQKGKKNDWKHNITQ-OH [Example 37, (Aib^2, A6c^7, 17, Nle^14)hGIP(1-42)-OH]
half-life at 0.1 mg/ml [2]: > 48 h
half-life at 0.1 mg/ml [3]: 14 h

Y[Aib]EGTF[Aib]SDYSIAMDKIHQQDFVNWLLAQKGKKNDWKHNITQ-OH [Example 3, (Aib^2, 7)hGIP(1-42)-OH]
half-life at 0.1 mg/ml [2]: > 48 h
half-life at 0.1 mg/ml [3]: 5.5 h

Y[Aib]EG[Ac5c]FISDYSIAMDKIHQQDFVNWLLAQKGKKNDWKHNITQ-OH [Example 5, (Aib^2, A5c^5)hGIP(1-42)-OH]
half-life at 0.1 mg/ml [2]: > 48 h
half-life at 0.1 mg/ml [3]: 6.1 h

Y[Aib]EG[Aib]FISDYSIAMDKIHQQDFVNWLLAQKGKKNDWKHNITQ-OH [Example 4, (Aib^2, 5)hGIP(1-42)-OH]
half-life at 0.1 mg/ml [2]: > 48 h
half-life at 0.1 mg/ml [3]: 4.8 h

Y[Aib]E[Aib]TFISDYSIAMDKIHQQDFVNWLLAQKGKKNDWKHNITQ-OH [Example 10, (Aib^2, 4)hGIP(1-42)-OH]
half-life at 0.1 mg/ml [2]: > 48 h
half-life at 0.1 mg/ml [3]: 4 h

Y[dA]EGTFISDY[Ac5c]IAMDKIHQQDFVNWLLAQKGKKNDWKHN[Ac5c]TQ-OH [Example 104, (D-Ala^2, A5c^11,40)hGIP(1-42)-OH]
half-life at 0.1 mg/ml [2]: 20.2 h
half-life at 0.1 mg/ml [3]: 14.8 h

[Orn](Myristoyl)AEGTF[Ac6c]SDYSIAMDKIHQQDFVNWLLAQKGKKNDWKHNITQ-OH [Example 103, [Orn^1(N—C(O)—(CH2)12—CH3), A6c^7]hGIP(1-42)-OH]
half-life [2]: 6.8 h
half-life ([3]; read-out: Rat Plasma T½): > 72 h
